Assay results as given in PubChem BioAssay (NCI).
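In this assay, cells in 96-well plates receive the compound at five concentrations for 48 hours. Endpoints are linearly interpolated between the surrounding concentrations. GI50 = concentration required for 50% inhibition of growth. At the TGI there is no net growth.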

Tested on: MDA-MB-468 breast
Assay: NCI-60 cell line screen, 48 h

| SMILES | GI50 [µM] | TGI [µM] |
| --- | --- | --- |
| O=C1C(Cl)=C(NCCN2CCOCC2)C(=O)c2ncccc21 | 1.41 | 2.91 |
| Cc1ccc(-c2nc3nc(-c4ccccc4)nc(N4CCCNCC4)c3o2)cc1 | 1.59 | 3.35 |
| CC(C)(O)c1cncc(-c2ccc3ncnc(N4CCc5cc(F)c(Cl)cc54)c3c2)c1 | 0.567 | 3.5 |
| COc1ccc(-c2onc(N)c2-c2cc(OC)c3c(c2)OCO3)cc1 | 0.644 | 3.15 |
| Nc1nc(N(Cc2ccccc2)c2ccccc2)c2cn[nH]c2n1 | 1.96 | 6.33 |
| CNC(=O)c1cc(-c2ccc(NC(=O)Nc3ccc(N4CCN(C)CC4)c(C(F)(F)F)c3)cc2)nc2cccnc12 | 14.8 | 32.9 |
| C[N+]1=C(/C=C/c2ccc(O)c3ncccc23)C(C)(C)c2ccccc21 | 3.05 | 10.6 |
| C#CCNC(=O)c1cccc2c1cc(C)n2-c1nc2c(c(NCc3ccccc3)n1)CCCC2 | 0.0213 | 0.0546 |
| CC/C=C\C[C@@H](O)C/C=C1/C(=O)C=C[C@H]1C/C=C\CCCC(=O)OC | 2.12 | 4.79 |
| CS(=O)(=O)CCNCc1ccc(-c2ccc3ncnc(Nc4ccc(OCc5ccccc5)cc4)c3c2)o1 | 0.146 | 1.62 |
| O=C(Nc1ccc(-c2nc(N3CCOCC3)c3cccn3n2)cc1)Nc1cccnc1 | 0.0692 | 0.57 |
| O=C(Nc1ccncc1)C(=O)c1cn(S(=O)(=O)c2cccc(F)c2)c2ccccc12 | 1.26 | 8.38 |
| NC(=O)NS(=O)(=O)c1ccc(N2N=C(C(F)(F)F)CC2c2cc(C(F)(F)F)cc(C(F)(F)F)c2)cc1 (centres undefined) | 2.7 | 10.9 |
| C#C[C@]1(O)CC[C@H]2[C@@H]3CC=C4c5sc(Nc6ncccc6C)nc5CC[C@]4(C)[C@H]3CC[C@@]21C | 1.25 | 3.23 |
| O=C(O)CCNC1CCCCC1 | > 100 | > 100 |
| O=C(O)/C=C(\c1nc2ccc([N+](=O)[O-])cc2[nH]1)c1cc(Cl)ccc1O | 2.09 | 9.96 |
| CN(C)CCCOc1ccc(C(=C(c2ccccc2)C2CCCC2)c2ccc(OCCCN(C)C)cc2)cc1 | 1.71 | 3.97 |
| COc1cc2ncn(-c3cc(OCc4cccs4)c(C(N)=O)s3)c2cc1OC | 0.654 | 6.41 |
| O=C(CCc1nnc2sc(-c3ccc(Cl)cc3Cl)nn12)c1nc2ccccc2[nH]1 | 0.466 | 1.49 |
| CCCCCCCC[C@@H](O)CC(=O)N[C@@H](CC(N)=O)C(=O)N[C@@H](CCC(N)=O)C(=O)N[C@@H](CC(=O)c1cc(C)cc(O)c1C(=O)c1c(O)cccc1O)CC(C)C | 0.401 | 3.14 |
| COC(=O)Nc1nc2ccc(Oc3ccc(NC(=O)Nc4cc(C(F)(F)F)ccc4F)cc3)cc2s1 | 9.11 | > 25 |

| SMILES | GI50 [µM] | TGI [µM] |
| --- | --- | --- |
| Cc1cc(-c2cnn3c(NCC4CC(C)(O)C4)cc(Oc4cccnc4)nc23)ccc1C(=O)NC1CC1 (centres undefined) | 2.08 | > 100 |
| CC/C=C\C[C@H](F)C/C=C1/C(=O)C=C[C@@H]1C/C=C\CCCC(=O)O | 3.85 | 11.5 |
| CCOCC(=O)N[C@H]1CCc2cc(OC)c(OC)c(OC)c2-c2ccc(OC)c(=O)cc21 | < 0.01 | > 100 |
| Cc1ccc(C(=O)N(CCCN)C(c2oc3cc(Cl)ccc3c(=O)c2Cc2ccccc2)C(C)C)cc1 (centres undefined) | < 0.01 | 0.904 |
| COc1ccc(CNS(=O)(=O)/N=C2\NC(=O)NC2=C(Cl)Cl)cc1 | 0.18 | 0.65 |
| Cc1ccc(C(=O)NC(C)C)cc1-c1ccc(C(=O)NCC2CC2)cc1 | > 25 | > 25 |
| CCCCCCCCn1ccc2cc(NC(=O)Cn3cc(CN4CCCC4)nn3)ccc21 | 1.63 | 3.17 |
| Nc1nccc(-c2c(-c3ccc(F)cc3)ncn2C2CCC(O)CC2)n1 (centres undefined) | 0.822 | 6.36 |
| CC1(C)OC2=C(CC1Br)C(=O)C(=O)c1ccccc12 (centres undefined) | 1.45 | 2.82 |
| COc1ccc2c(c1)CCCN2c1c2ccccc2nc2ccccc12 | 0.386 | > 100 |
| O=C1Nc2ccccc2C1(c1ccc(O)cc1)c1ccc(O)cc1 | 0.227 | 14.1 |
| COc1cc[nH]c1/C=C1\C(=O)Nc2ccc(F)c(C#CC3(O)CCNCC3)c21 | 0.123 | 0.6 |
| CCN(CC)CCCC(C)Nc1c2ccc(Cl)cc2nc2ccc(O)cc12 (centres undefined) | 1.31 | 2.91 |
| COc1ccc(-c2cnc(NC(=O)CCCCCCNC(=O)C(O)(O)C(F)(F)F)s2)cc1 | 0.877 | 5.56 |
| CCCC(=O)OCC1OC(n2cnc3c(=S)nc[nH]c32)C(OC(=O)CCC)C1OC(=O)CCC (centres undefined) | 0.802 | 45 |
| C=C(C[C@](O)(C(=O)/C=C/c1ccc(Cl)cc1)C(=O)OC)c1ccccc1 | 3.76 | 13.7 |
| COc1cc2cc(Oc3ccc(NC(=O)Nc4ccc(Cl)c(C(F)(F)F)c4)cc3)c(C)nc2cc1OCCN1CCOCC1 | 0.474 | 2.06 |
| Nc1nc2c(nnn2C2CC(O)C(CO)O2)c(=O)[nH]1 (centres undefined) | 0.825 | 7.2 |
| CCCn1c(=S)sc2c1nc(C)n1c(Nc3ccccc3)nnc21 | 2.03 | 13 |
| Cc1ccc2c(c1)Sc1c(ccc3ccccc13)N2 | 56.2 | > 100 |
| COc1ccc(-c2nc(-c3nc4ccc(Cl)cc4[nH]3)c3ccccn23)cc1 | 1.99 | 6.76 |
